Among the data in US5574161A, “7-(aminomethyl-oxa-7-aza-bicyclo[3.3.0]oct-7-yl)quinolonecarboxylic and 7-(aminomethyl-oxa-7-aza-bicyclo[3.3.0]oct-7-yl naphthyridonecarboxylic acid derivatives” (Bayer Aktiengesellschaft, priority 1992, dated 1996) are MIC values, retold here.

The structures appear in SMILES notation. A value given as a limit tells only on which side of the number the result lay.

Holding throughout (format): cell-based
Test [1] deals with Micrococcus luteus 9341. Kind of test: MIC, agar serial dilution, Micrococcus luteus 9341. The note with it: Iso-Sensitest agar, 37° C., about 20 hours. The protocol: (§1) The minimum inhibitory concentrations (MIC) were determined by means of serial dilution methods on Iso-Sensitest agar (Oxoid). For each substance to be tested, a series of agar plates was prepared which contained concentrations of the active compound which in each case decreased by a doubling dilution. The agar plates were inoculated with a Multipoint inoculator (Denley). For the inoculation, overnight cultures of the pathogens were used which had previously been diluted so that each inoculation spot contained about 10^4 colony-forming particles. The inoculated agar plates were incubated at 37° C. and the organism growth was recorded after about 20 hours. The MIC value (μg/ml) indicates the lowest concentration of active compound at which no growth was detected with the naked eye.
(§2) In the table below, the MIC values of some of the compounds according to the invention are listed in comparison with 1-cyclopropyl-6,8-difluoro-1,4-dihydro-7-(cis-2-oxa-5,8-diazabicyclo[4.3.0]non-8-yl)-4-oxo-3-quinoline-carboxylic acid hydrochloride (reference example A) and 8-chloro-1-cyclopropyl-6-fluoro-1,4-dihydro-7-(cis-2-oxa-5,8-diazabicyclo[4.3.0]non-8-yl)-4-oxo-3-quinoline-carboxylic acid hydrochloride (reference example B).

The test system of test [2] is Staphylococcus aureus 1756. Kind of test: MIC, agar serial dilution, Staphylococcus aureus 1756. The note with it: Iso-Sensitest agar, 37° C., about 20 hours. The method, then:
as §1, §2

Test [3] concerns Staphylococcus aureus 133. Kind of test: MIC, agar serial dilution, Staphylococcus aureus 133. The following applies: Iso-Sensitest agar, 37° C., about 20 hours. The protocol: as §1, §2
Test [4] deals with Klebsiella pneumoniae 8085. Kind of test: MIC, agar serial dilution, Klebsiella pneumoniae 8085. The following applies: Iso-Sensitest agar, 37° C., about 20 hours. The method, then:
as §1, §2

Test [5] relates to Enterobacter cloacae 2427. Kind of test: MIC, agar serial dilution, Enterobacter cloacae 2427. The note with it: Iso-Sensitest agar, 37° C., about 20 hours. The protocol: as §1, §2
Test [6] concerns Enterococcus faecalis 9790. Kind of test: MIC, agar serial dilution, Enterococcus faecalis 9790. The following applies: Iso-Sensitest agar, 37° C., about 20 hours. The method, then: as §1, §2
The subject of test [7] is Pseudomonas aeruginosa ICB 308029. Kind of test: MIC, agar serial dilution, Pseudomonas aeruginosa ICB 308029. The following applies: ICB308029, Iso-Sensitest agar, 37° C., about 20 hours. The method, then: as §1, §2
The test system of test [8] is Morganella morganii 932. Kind of test: MIC, agar serial dilution, Morganella morganii 932. The following applies: Iso-Sensitest agar, 37° C., about 20 hours. The protocol:
as §1, §2

For test [9], the system named is Enterococcus faecalis 27101. Kind of test: MIC, agar serial dilution, Enterococcus faecalis 27101. The following applies: Iso-Sensitest agar, 37° C., about 20 hours. The method, then: as §1, §2
Test [10] concerns Providencia sp. 12012. Kind of test: MIC, agar serial dilution, Providencia sp. 12012. The note with it: Iso-Sensitest agar, 37° C., about 20 hours. The protocol: as §1, §2
Test [11] concerns Escherichia coli 455/7. Kind of test: MIC, agar serial dilution, Escherichia coli 455/7. The note with it: Iso-Sensitest agar, 37° C., about 20 hours. The protocol: as §1, §2
Test [12] concerns Staphylococcus aureus ICB 25701. Kind of test: MIC, agar serial dilution, Staphylococcus aureus ICB 25701. The following applies: ICB25701, Iso-Sensitest agar, 37° C., about 20 hours. The protocol: as §1, §2
Test [13] has as its system Enterobacter aerog. ICB 5240. Kind of test: MIC, agar serial dilution, Enterobacter aerog. ICB 5240. The following applies: Iso-Sensitest agar, 37° C., about 20 hours. The method, then: as §1, §2

For orientation: MIC means the least concentration at which growth counts as inhibited. For the compound `Cl.O=C(O)c1cn(C2CC2)c2c(F)c(N3C[C@@H]4NCCO[C@@H]4C3)c(F)cc2c1=O` (relative stereo) [A, 1-cyclopropyl-6,8-difluoro-1,4-dihydro-7-(cis-2-oxa-5,8-diazabicyclo[4.3.0]non-8-yl)-4-oxo-3-quinoline-carboxylic acid hydrochloride], the minimal inhibitory concentration (MIC) in test [1] came to 0.5 µg/mL; in [2] it was 0.06 µg/mL; in test [3], 0.06 µg/mL; in test [4], 0.06 µg/mL; in [5], 0.125 µg/mL; in [6] it was 0.25 µg/mL. For the same compound, the MIC stood at 64 µg/mL in test [7]; 0.125 µg/mL in test [8]; 0.25 µg/mL in test [9]; 0.125 µg/mL in test [10]; 4 µg/mL in test [11]; 2 µg/mL in test [12]. The same compound showed an MIC in test [13] of 32 µg/mL.

As to `Cl.O=C(O)c1cn(C2CC2)c2c(Cl)c(N3C[C@@H]4NCCO[C@@H]4C3)c(F)cc2c1=O` (relative stereo) [B, 8-chloro-1-cyclopropyl-6-fluoro-1,4-dihydro-7-(cis-2-oxa-5,8-diazabicyclo[4.3.0]non-8-yl)-4-oxo-3-quinoline-carboxylic acid hydrochloride], the minimal inhibitory concentration (MIC) came out at 0.25 µg/mL in [1]; 0.015 µg/mL in test [2]; 0.03 µg/mL in test [3]; 0.06 µg/mL in test [4]; 0.25 µg/mL in test [5]; 0.125 µg/mL in test [6]. Besides, the MIC in test [7] is 64 µg/mL; in test [8], 0.06 µg/mL; in test [9], 0.125 µg/mL; in test [10], 0.06 µg/mL; in test [11], 2 µg/mL; in [12], 0.5 µg/mL. This compound also returned a minimal inhibitory concentration (MIC) in test [13] of 16 µg/mL.

For `Cl.NCC12CN(c3c(F)cc4c(=O)c(C(=O)O)cn(C5CC5)c4c3F)CC1CCO2` (stereo not shown) [Example 1B, 7-(1-aminomethyl-2-oxa-7-aza-bicyclo[3.3.0]oct-7-yl) -1-cyclopropyl-6,8-difluoro-1,4-dihydro-4-oxo-3-quinolinecarboxylic acid hydrochloride], the MIC was 0.25 µg/mL in test [1]; no more than 0.015 µg/mL in [2]; 0.06 µg/mL in test [3]; 0.06 µg/mL in test [4]; 0.06 µg/mL in test [5]; 0.125 µg/mL in test [6]. Moreover, the minimal inhibitory concentration (MIC) turned out to be 16 µg/mL in test [7]; 0.03 µg/mL in test [8]; 0.06 µg/mL in test [9]; 0.06 µg/mL in test [10]; 2 µg/mL in [11]; 1 µg/mL in test [12]. For the same compound, the minimum inhibitory concentration (MIC) in test [13] came out at 8 µg/mL.

Consider `NCC12CN(c3c(F)cc4c(=O)c(C(=O)O)cn(C5CC5)c4c3Cl)CC1CCO2.O=C(O)C(F)(F)F` (stereo not shown) [Example 2B, 7-(1-aminomethyl-2-oxa-7-aza-bicyclo[3.3.0]oct-7-yl)-8-chloro-1-cyclopropyl-6-fluoro-1,4-dihydro-4-oxo-3-quinolinecarboxylic acid trifluoroacetate], for which the minimum inhibitory concentration (MIC) amounted to 0.125 µg/mL in test [1]; 0.0039 µg/mL in test [2]; 0.015 µg/mL in test [3]; 0.03 µg/mL in test [4]; 0.06 µg/mL in [5]; 0.06 µg/mL in test [6]. In addition, the minimum inhibitory concentration (MIC) came to 32 µg/mL in test [7]; 0.03 µg/mL in [8]; 0.03 µg/mL in test [9]; 0.03 µg/mL in test [10]; 1 µg/mL in [11]; 0.25 µg/mL in [12]. The same compound returned a minimum inhibitory concentration (MIC) in test [13] of 8 µg/mL.
